Experimental data: PMC12196321, “Discovery of Novel Inhibitors of Aspergillus fumigatus DHODH via Virtual Screening, MD Simulation, and In Vitro Activity Assay” (Molecules, 2025)

Target: T1, Aspergillus fumigatus dihydroorotate dehydrogenase (AfDHODH) (Aspergillus fumigatus, UniProt Q4X169)
T1 construct: gene AFUA_2G11010; residues 89–531 with an N-terminal His-tag
T1 sequence (Q4X169 89-531): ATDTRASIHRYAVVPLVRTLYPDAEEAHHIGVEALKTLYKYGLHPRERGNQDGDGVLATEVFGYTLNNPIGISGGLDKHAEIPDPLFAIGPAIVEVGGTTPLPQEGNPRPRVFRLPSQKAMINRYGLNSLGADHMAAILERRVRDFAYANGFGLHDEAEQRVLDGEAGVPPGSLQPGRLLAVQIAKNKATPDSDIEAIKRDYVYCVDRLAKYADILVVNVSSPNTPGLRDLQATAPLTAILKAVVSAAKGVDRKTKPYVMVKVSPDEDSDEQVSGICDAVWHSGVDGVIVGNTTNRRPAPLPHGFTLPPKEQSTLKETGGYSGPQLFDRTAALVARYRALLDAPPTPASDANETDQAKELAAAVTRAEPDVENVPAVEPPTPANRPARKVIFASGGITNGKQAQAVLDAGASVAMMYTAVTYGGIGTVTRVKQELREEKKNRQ
Experiment: DCIP colorimetric enzyme assay (absorbance at […] nm)
Type: biochemical

Row | SMILES | IC50
1 | COC(=O)c1c(NC(=S)NNC(=O)c2ccc(Cl)s2)sc(C(=O)N(C)C)c1C [CHEMBL1509241] | 16.9 µM
2 | COC(=O)c1c(NC(=S)NNC(=O)c2ccc(Cl)s2)sc(C(=O)N(C)C)c1C [ZINC67300323] | 57.3 µM
